Laboratory results from patent EP4603105A1, “PHARMACEUTICAL COMPOSITION CONTAINING CYCLIC COMPOUND HAVING SELECTIVE KRAS INHIBITORY EFFECT AGAINST HRAS AND NRAS” (CHUGAI SEIYAKU KABUSHIKI KAISHA, priority 2022, dated 2024).
Where a SMILES comes first, the peptide text is derived from it. Bridges are numbered along the chain shown (N, C = ends). [ ]: non-standard residue; d: D form. The star is where a group is joined. hPhe(3-Cl-4-CF3) = N[C@@H](CCc1ccc(C(F)(F)F)c(Cl)c1)C(=O)O; NPrPhe(4-CF3) = CCCN[C@@H](Cc1ccc(C(F)(F)F)cc1)C(=O)O; NPrPhe(4-Me) = CCCN[C@@H](Cc1ccc(C)cc1)C(=O)O; NEtPhe(4-Me) = CCN[C@@H](Cc1ccc(C)cc1)C(=O)O; NMeGly(cPent) = CN[C@H](C(=O)O)C1CCCC1; NMeD = CN[C@@H](CC(=O)O)C(=O)O; NMeL = CN[C@@H](CC(C)C)C(=O)O; hPip = O=C(O)[C@@H]1CCCCCN1; Ac6c = NC1(C(=O)O)CCCCC1; Morpholide = C1CN(*)CCO1; NMeA = CN[C@@H](C)C(=O)O; Ac5c = NC1(C(=O)O)CCCC1; Aze = O=C(O)[C@@H]1CCN1; NEtG = CCNCC(=O)O; Sar = CNCC(=O)O

What was measured:
[1] = molecular target: GDP-bound NRAS wild-type protein (Homo sapiens, UniProt P01111); assay: Binding to NRAS by surface plasmon resonance (SPR), KD and KD ratio to KRAS
How it was run: (§1)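 Running buffer contained 10 µM GDP and 10 mM MgCl2 to keep RAS in the GDP state, with 4% DMSO at pH 7.4. Compounds were flowed at 100 µL/min in 75 s steps of rising concentration over captured biotin-Avi RAS at 30°C. Sensorgrams were fitted 1:1 for KD.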

[2] = molecular target: HRAS wild-type protein (Homo sapiens, UniProt P01112); assay: Binding to HRAS by surface plasmon resonance (SPR), KD and KD ratio to KRAS
How it was run: as §1

[3] = tested on: human lung cancer strain NCI-H441; assay type: cell-based
How it was run: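 Step one: dispense the test compound in serial DMSO dilutions. Step three: add the reagent and measure […].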

[4] = ratio of the KD value with respect to GDP-bound NRAS wild-type protein to the KD value with respect to KRAS
[5] = ratio of the KD value with respect to HRAS wild-type protein to the KD value with respect to KRAS
[6] = ratio of KD for GDP-bound NRAS wild-type protein to KD for KRAS
[7] = ratio of KD for HRAS wild-type protein to KD for KRAS

HRAS wild-type protein, sequence (P01112 whole entry): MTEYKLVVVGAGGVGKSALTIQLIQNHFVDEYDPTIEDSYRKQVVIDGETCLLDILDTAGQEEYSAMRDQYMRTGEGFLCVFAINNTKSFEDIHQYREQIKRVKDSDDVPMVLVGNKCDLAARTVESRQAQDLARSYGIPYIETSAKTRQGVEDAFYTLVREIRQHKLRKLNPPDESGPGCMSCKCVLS
GDP-bound NRAS wild-type protein, sequence (P01111 whole entry): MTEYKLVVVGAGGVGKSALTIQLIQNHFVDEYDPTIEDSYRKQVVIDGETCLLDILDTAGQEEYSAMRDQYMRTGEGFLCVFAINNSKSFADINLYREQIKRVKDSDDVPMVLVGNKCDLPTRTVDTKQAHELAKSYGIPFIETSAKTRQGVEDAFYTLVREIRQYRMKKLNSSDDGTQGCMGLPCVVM

Row | Compound | IC50 [3] [µM] | NRAS /KRAS [1, 4] | HRAS /KRAS [2, 5] | NRAS /KRAS [1, 6] | HRAS /KRAS [2, 7] | NRAS /KRAS ([1]; ratio of KD value for GDP-bound NRAS wild-type protein to KD value for KRAS (SPR)) | HRAS /KRAS ([2]; ratio of KD value for HRAS wild-type protein to KD value for KRAS (SPR))
1 | CC[C@H](C)[C@@H]1NC(=O)[C@H](C)N(C)C(=O)C[C@@H](C(=O)N(C)C)N(C)C(=O)[C@H](C2CCCC2)N(C)C(=O)C2(CCCC2)NC(=O)[C@@H]2CC(F)(F)CN2C(=O)[C@H](CCc2cc(F)c(C(F)(F)F)c(F)c2)NC(=O)CN(C)C(=O)[C@H](Cc2ccc(C(F)(F)F)cc2)N2CCCCC[C@@H](C2=O)N(C)C(=O)CN(C)C1=O [PP0472] | 0.0244 | B (a compound having 3 or more and less than 10 is denoted as B) | B (a compound having 3 or more and less than 10 is denoted as B) |  |  |  | 
2 | CCC[C@H]1C(=O)N[C@@H]([C@@H](C)CC)C(=O)N(C)CC(=O)N(C)[C@H]2C/C=C\CCN(C2=O)[C@@H](Cc2ccc(C(F)(F)F)cc2)C(=O)N(C)CC(=O)N[C@@H](CCc2cc(F)c(C(F)(F)F)c(F)c2)C(=O)N2C[C@H](OCC)C[C@H]2C(=O)NC2(CC(C)(C)C2)C(=O)N(C)[C@@H](CC2CC2)C(=O)N(C)[C@H](C(=O)N(C)C)CC(=O)N1C [PP2807] | 0.028 |  |  | AA (a compound having 20 or more is denoted as AA) | A (a compound having 10 or more and less than 20 is denoted as A) |  | 
3 | CCCN1C(=O)[C@@H]2CCN2C(=O)[C@H](C)N(C)C(=O)[C@H]([C@@H](C)CC)NC(=O)[C@H](CC(C)C)N(C)C(=O)C[C@@H](C(=O)N2CCOCC2)N(C)C(=O)[C@H](C2CCCC2)N(C)C(=O)C2(CCCCC2)NC(=O)[C@@H]2CCCN2C(=O)[C@H](CCc2ccc(C(F)(F)F)c(Cl)c2)NC(=O)CN(C)C(=O)[C@@H]1Cc1ccc(C(F)(F)F)cc1 [PP0226] ([NMeL]I[NMeA][Aze][NPrPhe(4-CF3)][Sar][hPhe(3-Cl-4-CF3)]P[Ac6c][NMeGly(cPent)][NMeD]-Morpholide; lactam N-11) | 0.0153 |  |  | C (A compound having a KD ratio of 0.1 or more and less than 3 is denoted as C) | B (a compound having 3 or more and less than 10 is denoted as B) |  | 
4 | CCO[C@@H]1C[C@H]2C(=O)NC3(CCC3)C(=O)N(C)[C@@H](C3CCCC3)C(=O)N(C)[C@H](C(C)C)CC(=O)N(C)[C@@H](CC)C(=O)N[C@@H]([C@@H](C)CC)C(=O)N(C)CC(=O)N(C)[C@H]3C/C=C\CCN(C3=O)[C@@H](CC3CCCCC3)C(=O)N(C)CC(=O)N[C@@H](CCc3cc(F)c(C(F)(F)F)c(F)c3)C(=O)N2C1 [PP1601] | 0.0786 |  |  |  |  | B (a compound having 3 or more and less than 10 is denoted as B) | A (a compound having 10 or more and less than 20 is denoted as A)

More lines, in order of falling IC50 [3], values ahead:

Row | IC50 [3] [µM] | Compound | NRAS /KRAS [1, 4] | HRAS /KRAS [2, 5] | NRAS /KRAS [1, 6] | HRAS /KRAS [2, 7] | NRAS /KRAS ([1]; ratio of KD value for GDP-bound NRAS wild-type protein to KD value for KRAS (SPR)) | HRAS /KRAS ([2]; ratio of KD value for HRAS wild-type protein to KD value for KRAS (SPR))
5 | 0.0764 | CCCN1C(=O)CN(C)C(=O)CN(CC)C(=O)[C@H]([C@@H](C)CC)NC(=O)[C@@H]2CCCCCN2C(=O)C[C@@H](C(=O)N2CCOCC2)N(C)C(=O)[C@H](C2CCCC2)N(C)C(=O)C2(CCCC2)NC(=O)[C@@H]2CCCN2C(=O)[C@H](CCc2ccc(C(F)(F)F)c(Cl)c2)NC(=O)CN(C)C(=O)[C@@H]1Cc1ccc(C(F)(F)F)cc1 [PP0289] ([hPip]I[NEtG][Sar][NPrPhe(4-CF3)][Sar][hPhe(3-Cl-4-CF3)]P[Ac5c][NMeGly(cPent)][NMeD]-Morpholide; lactam N-11) |  |  | B (a compound having 3 or more and less than 10 is denoted as B) | B (a compound having 3 or more and less than 10 is denoted as B) |  | 
6 | 0.0176 | CC[C@H](C)[C@@H]1NC(=O)[C@H](CC(C)C)N(C)C(=O)C[C@@H](C(=O)N2CCOCC2)N(C)C(=O)[C@H](C2CCCC2)N(C)C(=O)C2(CCC2)NC(=O)[C@@H]2CC(F)(F)CN2C(=O)[C@H](CCc2cc(F)c(C(F)(F)F)c(F)c2)NC(=O)CN(C)C(=O)[C@H](Cc2ccc(C(F)(F)F)cc2)N2CCCCC[C@@H](C2=O)N(C)C(=O)CN(C)C1=O [PP0464] | B (a compound having 3 or more and less than 10 is denoted as B) | B (a compound having 3 or more and less than 10 is denoted as B) |  |  |  | 
7 | 0.0061 | CCCN1C(=O)CN(C)C(=O)CN(C)C(=O)[C@H]([C@@H](C)CC)NC(=O)[C@H](CC(C)C)N(C)C(=O)C[C@@H](C(=O)N2CCOCC2)N(C)C(=O)[C@H](C2CCCC2)N(C)C(=O)C2(CCCC2)NC(=O)[C@@H]2CCCN2C(=O)[C@H](CCc2ccc(C(F)(F)F)c(Cl)c2)NC(=O)CN(C)C(=O)[C@@H]1Cc1ccc(C)cc1 [PP0059] ([NMeL]I[Sar][Sar][NPrPhe(4-Me)][Sar][hPhe(3-Cl-4-CF3)]P[Ac5c][NMeGly(cPent)][NMeD]-Morpholide; lactam N-11) |  |  | B (a compound having 3 or more and less than 10 is denoted as B) | C (A compound having a KD ratio of 0.1 or more and less than 3 is denoted as C) |  | 
8 | 0.0048 | CC[C@H](C)[C@@H]1NC(=O)[C@H](C)N(C)C(=O)C[C@@H](C(=O)N2CCOCC2)N(C)C(=O)[C@H](C2CCCC2)N(C)C(=O)C2(CCCC2)NC(=O)[C@@H]2CCCN2C(=O)[C@H](CCc2ccc(C(F)(F)F)c(Cl)c2)NC(=O)CN(C)C(=O)[C@H](Cc2ccc(C)cc2)N(CC)C(=O)[C@@H]2CCN2C(=O)[C@H](C)N(C)C1=O [PP0007] ([NMeA]I[NMeA][Aze][NEtPhe(4-Me)][Sar][hPhe(3-Cl-4-CF3)]P[Ac5c][NMeGly(cPent)][NMeD]-Morpholide; lactam N-11) |  |  | C (A compound having a KD ratio of 0.1 or more and less than 3 is denoted as C) | C (A compound having a KD ratio of 0.1 or more and less than 3 is denoted as C) |  | 
